The results in this text go back to ChEMBL document CHEMBL3259726, “Identification of a new series of potent diphenol HSP90 inhibitors by fragment merging and structure-based optimization” (Bioorg Med Chem Lett, 2014).

Data set [1] concerns the target T1, Heat shock protein HSP 90-alpha (Homo sapiens, UniProt P07900). As to the kind of experiment: biochemical.
Description: Displacement of GM-BODIPY from human full length HSP90 alpha expressed in baculovirus-infected Sf9 cells after 16 hrs by fluorescence polarization assay
Data set [2] is described as follows: Retention time of the compound. Format: physicochemical.
The next data set has as its target CYP3A4 (Homo sapiens, UniProt P08684). Nature of the data set: Inhibition of CYP3A4 in human liver microsomes using midazolam or testosterone as substrate at 10 uM. Format: ADME. The settings on record: probe midazolam or testosterone. For orientation: Liver microsomes are a subcellular fraction often used to study metabolism.
Another data set has as its target CYP2C19 (Homo sapiens, UniProt P33261). Nature of the data set: Inhibition of CYP2C19 in human liver microsomes using mephenytoin as substrate at 10 uM. Format: ADME. The settings on record: probe mephenytoin.
The nature of data set [3]: Intrinsic clearance in human liver microsomes at 1 uM after 5 mins by LC-MS/MS analysis. Format: ADME. The following applies: read-out: CLH.
Data set [4] can be described thus: Intrinsic clearance in rat liver microsomes at 1 uM after 5 mins by LC-MS/MS analysis. Format: ADME. The following applies: read-out: CLH.
The next data set concerns the target T2, CYP1A2 (Homo sapiens, UniProt P05177).
T2 sequence (P05177 whole entry): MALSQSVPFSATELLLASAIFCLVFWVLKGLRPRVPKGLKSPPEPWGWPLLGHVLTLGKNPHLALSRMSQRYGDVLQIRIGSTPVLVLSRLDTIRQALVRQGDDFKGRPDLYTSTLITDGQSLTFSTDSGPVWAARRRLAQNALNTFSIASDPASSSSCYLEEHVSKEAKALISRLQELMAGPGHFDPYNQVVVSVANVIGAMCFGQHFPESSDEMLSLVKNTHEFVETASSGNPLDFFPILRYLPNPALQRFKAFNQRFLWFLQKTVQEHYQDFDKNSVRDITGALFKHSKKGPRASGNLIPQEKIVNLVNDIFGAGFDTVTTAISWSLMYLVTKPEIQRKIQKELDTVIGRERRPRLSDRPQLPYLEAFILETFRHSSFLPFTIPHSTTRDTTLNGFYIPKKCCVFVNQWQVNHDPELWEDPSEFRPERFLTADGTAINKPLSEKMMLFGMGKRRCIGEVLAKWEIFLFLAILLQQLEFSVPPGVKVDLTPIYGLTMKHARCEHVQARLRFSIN
As to the kind of experiment: Inhibition of CYP1A2 in human liver microsomes using phenacetin as substrate at 10 uM. Format: ADME. The following applies: probe phenacetin.

The target in the next data set is CYP2C9 (Homo sapiens, UniProt P11712). As to the kind of experiment: Inhibition of CYP2C9 in human liver microsomes using diclofenac as substrate at 10 uM. Format: ADME. The following applies: probe diclofenac.
The target of the next data set is CYP2D6 (Homo sapiens, UniProt P10635). Nature of the data set: Inhibition of CYP2D6 in human liver microsomes using dextromethorphan as substrate at 10 uM. Format: ADME. The settings on record: probe dextromethorphan.
Data set [5] is described as follows: Growth inhibition of human NCI-H3122 cells after 72 hrs by spectrophotometer analysis. Format: functional. The following applies: NCI-H3122, 72 h.
The test system of the next data set is HCT-116. As to the kind of experiment: Growth inhibition of human HCT116 cells after 72 hrs by spectrophotometer analysis. Format: functional. The settings on record: HCT-116, 72 h.
Data set [6] in a line: Growth inhibition of human BT474 cells after 72 hrs by spectrophotometer analysis. Format: functional. The following applies: BT-474, 72 h.
In the next data set the test system is A549. Nature of the data set: Growth inhibition of human A549 cells after 72 hrs by spectrophotometer analysis. Format: functional. The following applies: A549, 72 h.
Data set [7] deals with T1, Heat shock protein HSP 90-alpha. As to the kind of experiment: Displacement of GM-BODIPY from human full length HSP90 alpha expressed in baculovirus-infected Sf9 cells at 1 uM after 16 hrs by fluorescence polarization assay. For orientation: Fluorescence polarisation rises when a labelled molecule tumbles more slowly, as on binding a larger partner.
The target in the next data set is Cytochrome P450 2C19 (Homo sapiens, UniProt P33261). Nature of the data set: Time-dependent inhibition of CYP2C19 in human liver microsomes using mephenytoin as substrate at 10 uM. Format: ADME. The following applies: TDE = time-dependent effect.
Data set [8] concerns the target T1, Heat shock protein HSP 90-alpha. Nature of the data set: Displacement of GM-BODIPY from human full length HSP90 alpha expressed in baculovirus-infected Sf9 cells at 5 uM after 16 hrs by fluorescence polarization assay.

Each structure is given as a SMILES string.

Chain of CYP2C19 (P33261 whole entry): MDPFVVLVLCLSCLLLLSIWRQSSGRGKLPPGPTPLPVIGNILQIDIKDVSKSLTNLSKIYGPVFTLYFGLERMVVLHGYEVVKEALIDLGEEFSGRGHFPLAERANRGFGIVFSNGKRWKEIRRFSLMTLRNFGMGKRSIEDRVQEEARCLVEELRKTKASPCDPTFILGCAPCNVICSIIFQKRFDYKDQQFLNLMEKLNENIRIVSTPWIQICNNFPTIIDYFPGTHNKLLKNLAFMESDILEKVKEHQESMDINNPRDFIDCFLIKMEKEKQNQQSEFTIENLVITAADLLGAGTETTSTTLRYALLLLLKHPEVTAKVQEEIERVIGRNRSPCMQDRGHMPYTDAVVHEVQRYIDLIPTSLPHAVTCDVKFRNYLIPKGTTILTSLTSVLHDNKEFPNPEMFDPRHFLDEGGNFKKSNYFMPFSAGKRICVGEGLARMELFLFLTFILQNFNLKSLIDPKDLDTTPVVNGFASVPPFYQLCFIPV
Chain of CYP2D6 (P10635 whole entry): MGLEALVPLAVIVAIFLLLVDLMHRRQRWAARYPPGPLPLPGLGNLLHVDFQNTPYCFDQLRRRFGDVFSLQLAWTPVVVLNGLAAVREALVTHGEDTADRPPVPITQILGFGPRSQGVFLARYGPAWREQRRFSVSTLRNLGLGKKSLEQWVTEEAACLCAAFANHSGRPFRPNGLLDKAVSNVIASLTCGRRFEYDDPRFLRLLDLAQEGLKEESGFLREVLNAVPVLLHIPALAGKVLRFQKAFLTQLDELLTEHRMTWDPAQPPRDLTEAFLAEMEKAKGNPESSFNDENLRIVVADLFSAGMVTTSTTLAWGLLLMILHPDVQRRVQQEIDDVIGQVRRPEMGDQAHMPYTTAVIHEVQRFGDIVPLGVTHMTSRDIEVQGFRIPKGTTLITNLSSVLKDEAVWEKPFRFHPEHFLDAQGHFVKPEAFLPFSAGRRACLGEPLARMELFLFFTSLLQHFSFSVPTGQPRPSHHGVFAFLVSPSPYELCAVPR
Chain of CYP3A4 (P08684 whole entry): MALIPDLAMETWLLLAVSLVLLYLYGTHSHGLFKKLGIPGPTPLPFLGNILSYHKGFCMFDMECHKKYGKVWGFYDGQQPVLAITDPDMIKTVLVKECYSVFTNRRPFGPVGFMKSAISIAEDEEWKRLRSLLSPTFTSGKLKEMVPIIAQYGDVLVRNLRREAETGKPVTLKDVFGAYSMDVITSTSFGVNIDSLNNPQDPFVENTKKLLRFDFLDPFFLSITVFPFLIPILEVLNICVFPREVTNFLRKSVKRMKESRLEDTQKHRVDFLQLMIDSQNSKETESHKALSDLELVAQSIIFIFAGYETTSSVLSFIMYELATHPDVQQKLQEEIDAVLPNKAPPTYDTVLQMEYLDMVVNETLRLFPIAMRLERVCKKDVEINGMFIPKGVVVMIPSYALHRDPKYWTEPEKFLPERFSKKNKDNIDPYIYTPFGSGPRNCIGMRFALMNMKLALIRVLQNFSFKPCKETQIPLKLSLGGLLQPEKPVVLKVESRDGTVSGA
Chain of CYP2C9 (P11712 whole entry): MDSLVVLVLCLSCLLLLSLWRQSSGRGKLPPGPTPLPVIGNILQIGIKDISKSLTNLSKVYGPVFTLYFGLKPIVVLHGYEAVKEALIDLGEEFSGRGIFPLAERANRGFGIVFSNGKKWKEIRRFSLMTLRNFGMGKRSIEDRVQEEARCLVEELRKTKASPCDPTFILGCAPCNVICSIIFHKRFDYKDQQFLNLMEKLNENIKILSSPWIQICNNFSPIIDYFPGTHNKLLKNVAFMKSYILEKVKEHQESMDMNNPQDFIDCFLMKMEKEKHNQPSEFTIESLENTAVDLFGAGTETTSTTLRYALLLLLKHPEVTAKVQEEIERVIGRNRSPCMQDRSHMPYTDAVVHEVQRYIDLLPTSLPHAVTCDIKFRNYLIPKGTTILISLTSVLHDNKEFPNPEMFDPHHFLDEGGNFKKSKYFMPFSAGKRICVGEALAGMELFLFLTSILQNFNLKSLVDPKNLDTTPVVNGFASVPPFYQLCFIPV
Chain of Cytochrome P450 2C19 (P33261 whole entry): as the sequence (P33261 whole entry) above

`COc1ccc2c(c1)c(CCN)cn2-c1cc(C(=O)N2Cc3ccccc3C2)c(O)cc1O` displayed an IC50 in data set [1] of 1.5 µM. Further, the Retention_time in data set [2] stood at 2.69 min.
In turn, `O=C(c1cc(Nc2ccccc2)c(O)cc1O)N1Cc2ccccc2C1` showed a half-maximal inhibitory concentration (IC50) in data set [1] of 0.021 µM. Moreover, in data set [2], the Retention_time is 3.12 min. Further, the inhibition at 10 µM against CYP3A4 was 19%; on CYP2C19, 52%; against CYP1A2 it was 72%; against CYP2C9, 68%; against CYP2D6, 22%. Moreover, the microsomal CLint at 1 µM in data set [3] was 2 µL/min/mg; in [4], 12 µL/min/mg.
In turn, `O=C(c1cc(-n2ccc3ccccc32)c(O)cc1O)N1CCc2ccccc2C1` returned an IC50 in [1] of 0.13 µM. The compound also registered a Retention_time in data set [2] of 3.54 min.
For `O=C(c1cc(Nc2ccc(Cl)cc2Cl)c(O)cc1O)N1Cc2ccccc2C1`, half-maximal inhibition in data set [1] (IC50) required 0.19 µM. In addition, the concentration for 50% growth inhibition (GI50) worked out at 10.1 µM in data set [5], 10.6 µM with HCT-116, 6.31 µM in data set [6] and 24.2 µM with A549. In data set [2], this compound displayed a Retention_time of 3.87 min. For the same compound, the inhibition at 10 µM on CYP3A4 stood at 33%; on CYP2C19 it was 23%; against CYP1A2, 40%; against CYP2C9, 73%; against CYP2D6, 5%. Further, the microsomal CLint at 1 µM in data set [4] worked out at 16 µL/min/mg.
As to `O=C(O)Cc1cn(-c2cc(C(=O)N3Cc4ccccc4C3)c(O)cc2O)c2ccccc12`, the Retention_time in [2] was found to be 2.97 min. This compound yielded an inhibition in [7] of 14.1%.
Consider `CNC(=O)c1cccc2c1ccn2-c1cc(C(=O)N2Cc3ccccc3C2)c(O)cc1O`, for which, in data set [1], 0.62 µM corresponded to half-maximal inhibition (IC50). The Retention_time in data set [2] is given as 2.74 min.
For `O=C(c1cc(-n2ccc3c([N+](=O)[O-])cccc32)c(O)cc1O)N1Cc2ccccc2C1`, the IC50 in [1] is 0.039 µM. The compound also returned a Retention_time in data set [2] of 3.45 min. Besides, the “inhibition (INH)” value against Cytochrome P450 2C19 is given as “tde”. Also, the inhibition at 10 µM on CYP3A4 was 8%; against CYP2C19 it was 89%; against CYP1A2 it was 47%; against CYP2C9, 74%; against CYP2D6 it was 50%. The microsomal CLint at 1 µM came to 22 µL/min/mg in [3] and 6 µL/min/mg in data set [4].
Take `Cc1ccc(Nc2cc(C(=O)N3Cc4ccccc4C3)c(O)cc2O)cc1`: half-maximal inhibition in [1] (IC50) was put at 0.071 µM. The compound also yielded a Retention_time in data set [2] of 3.29 min. In addition, the inhibition at 10 µM on CYP3A4 turned out to be 38%; against CYP2C19, 58%; against CYP1A2, 61%; on CYP2C9, 75%; at CYP2D6, 7%.
Consider `CN1CCN(C(=O)c2cc(-n3ccc4ccccc43)c(O)cc2O)CC1`, for which the IC50 in [1] was found to be 0.63 µM. Besides, the Retention_time in [2] stood at 2.35 min.
`CN1CCN(C(=O)c2cc(-c3nnc4ccc(Br)cn34)c(O)cc2O)CC1` returned a Retention_time in data set [2] of 1.86 min. In data set [8], this compound displayed an inhibition of 8.8%.
In data set [1], `O=C(c1cc(-n2ccc3ccccc32)c(O)cc1O)N1CCc2sccc2C1` gave an IC50 of 0.33 µM. This compound also registered a Retention_time in data set [2] of 3.45 min.
Taken in the same sequence, the figures for `COC(=O)c1cccc2c1ccn2-c1cc(C(=O)N2Cc3ccccc3C2)c(O)cc1O` were 0.13 µM and 3.32 min.
For `COc1ccc2c(c1)c(CCNC(C)=O)cn2-c1cc(C(=O)N2Cc3ccccc3C2)c(O)cc1O`, the Retention_time in data set [2] came to 3.04 min. The same compound gave an inhibition in data set [7] of 56.9%.
Consider `Cc1ccc2c(ccn2-c2cc(C(=O)N3Cc4ccccc4C3)c(O)cc2O)c1`, for which the IC50 in data set [1] was found to be 0.038 µM. The GI50 in data set [5] was 7.53 µM; with HCT-116, 8.6 µM; in data set [6], 7.07 µM; with A549 it was 11.1 µM. The compound also registered a Retention_time in data set [2] of 3.68 min. The inhibition at 10 µM at CYP3A4 worked out at 4%; against CYP2C19, 63%; on CYP1A2 it was 28%; against CYP2C9, 68%; against CYP2D6, 7%. The microsomal CLint at 1 µM in data set [4] was found to be 42 µL/min/mg.
Consider `O=C(c1cc(-n2ccc3ncccc32)c(O)cc1O)N1Cc2ccccc2C1`, for which the IC50 in [1] worked out at 0.13 µM. In addition, the Retention_time in [2] stood at 2.4 min.
Regarding `O=C(c1cc(-n2ccc3ccccc32)c(O)cc1O)N1Cc2ccccc2C1`, 0.038 µM corresponded to half-maximal inhibition in data set [1] (IC50). In addition, the GI50 came to 7.53 µM in data set [5], 10.1 µM in the data set on HCT-116, 7.25 µM in data set [6] and 14.3 µM with A549. Besides, the Retention_time in [2] stood at 3.56 min. The inhibition at 10 µM turned out to be 17% against CYP3A4; 60% on CYP2C19; 52% against CYP1A2; 73% against CYP2C9; 14% at CYP2D6. Moreover, the results for the microsomal CLint at 1 µM in data set [3] and in data set [4] were 13 µL/min/mg and 25 µL/min/mg, respectively.
Take `O=C(c1cc(-n2ccc3c(Br)cccc32)c(O)cc1O)N1Cc2ccccc2C1`: the IC50 in data set [1] came out at 0.07 µM. Besides, the GI50 was 9.67 µM in [5], 12.3 µM with HCT-116, 8.52 µM in data set [6] and 21 µM with A549. Moreover, the Retention_time in data set [2] is 3.8 min. Moreover, the inhibition at 10 µM against CYP3A4 is 22%; on CYP2C19, 70%; against CYP1A2, 34%; against CYP2C9, 54%; against CYP2D6, 19%. Further, the microsomal CLint at 1 µM in data set [4] is 49 µL/min/mg.
Compound `O=C(c1cc(-n2ccc3cc(Br)ccc32)c(O)cc1O)N1Cc2ccccc2C1` yielded an IC50 in data set [1] of 0.078 µM. Also, the Retention_time in data set [2] worked out at 3.8 min. Further, the inhibition at 10 µM against CYP3A4 turned out to be 13%; at CYP2C19, 71%; at CYP1A2, 48%; against CYP2C9 it was 78%; at CYP2D6, 32%. The values for the microsomal CLint at 1 µM in data set [3] and in data set [4] were 18 µL/min/mg and 16 µL/min/mg, respectively.
Compound `O=C(c1cc(-n2ccc3cnccc32)c(O)cc1O)N1Cc2ccccc2C1` returned an IC50 in data set [1] of 0.25 µM. The same compound registered a Retention_time in [2] of 2.45 min.
Take `O=C(c1cc(-c2nnc3ccc(Br)cn23)c(O)cc1O)N1CCc2ccccc2C1`: the Retention_time in data set [2] is 2.76 min. In data set [8], this compound returned an inhibition of 18.7%.

What is called IC50 is the concentration that gives 50% inhibition. A lower IC50 goes with greater potency. In general, inhibition refers to the drop in the measured response relative to a control, in per cent. Read a low inhibition as a response near the control. As usually defined, the GI50 is the concentration giving 50% growth inhibition. Lower therefore signals greater sensitivity of the cells.
